Results: publication PMC8371902, “Phase 1 study of M2698, a p70S6K/AKT dual inhibitor, in patients with advanced cancer” (Journal of Hematology & Oncology, 2021)
Entries after “also recorded” stand apart in the source; their conditions may differ.

Tested on: patients with advanced metastatic cancer
Source text: In this phase 1 study, dose escalation was followed by expansion cohorts of once-daily, oral M2698 in continuous 21-day cycles. Primary objectives were to determine the maximum tolerated dose (MTD), dose-limiting toxicities (DLTs), and recommended phase 2 dose (RP2D). Secondary objectives were to assess safety and tolerability, pharmacokinetics (PK, including food effect) and antitumor activity. Pharmacodynamic biomarker assessments were exploratory. Treatment was discontinued if there was disease progression, toxicity or consent withdrawal.
In Part 1, M2698 monotherapy was investigated in a dose escalation with a food effect cohort. In Part 2, M2698 was investigated as monotherapy (expansion cohort) to further characterize safety, tolerability and pharmacokinetics, and assess antitumor activity in PAM + patients without confounding markers (exploratory).
Dose escalation analysis included all patients who experienced a DLT and those who received ≥ 80% of planned M2698 doses in cycle 1 without experiencing a DLT. Safety analysis included all patients who received ≥ 1 dose of M2698. PK analysis included all patients who received ≥ 1 dose of M2698 and had measurable plasma concentrations. Dose proportionality was tested using the power model (linear regression approach on the log -transformed scale).

With `NC(=O)c1cccc2c(N[C@H](CN3CCC3)c3ccc(Cl)c(C(F)(F)F)c3)ncnc12` [M2698] the “M2698-related TEAE: Vomiting” value (Overall N=62) was 2 (3.2) n (%), the “M2698-related TEAE: White blood cell count decreased” value (Overall N=62) was 1 (1.6) n (%) and the “Maximum tolerated dose (MTD) of M2698” value (daily) was “no formal MTD was determined; also recorded: no MTD was reached”. For the same compound, the “Number of DLTs observed” value (dose escalation) was “two”, the “Grade >3 TEAE: GGT increased” value (in vivo) was 4.8% and the “Grade >3 TEAE: abdominal pain” value (in vivo) was 3.2%. The “Grade >3 TEAE: acute kidney injury” value (in vivo) was 4.8%, the “Grade >3 TEAE: acute respiratory failure” value (in vivo) was 3.2% and the “Grade >3 TEAE: anemia” value (in vivo) was 9.7%. The “Grade >3 TEAE: blood AP increased” value (in vivo) was 3.2%, the “Grade >3 TEAE: blood creatine phosphokinase increased” value (in vivo) was 3.2% and the “Grade >3 TEAE: cardiac arrest” value (in vivo) was 3.2%. For the same compound, the “Grade >3 TEAE: constipation” value (in vivo) was 3.2%, the “Grade >3 TEAE: disease progression” value (in vivo) was 3.2% and the “Grade >3 TEAE: hypertension” value (in vivo) was 3.2%. The “Grade >3 TEAE: hyponatremia” value (in vivo) was 6.5%, the “Grade >3 TEAE: nausea” value (in vivo) was 3.2% and the “Grade >3 TEAE: pleural effusion” value (in vivo) was 3.2%. For the same compound, the “Grade >3 TEAE: pneumonia” value (in vivo) was 4.8%, the “Grade >3 TEAE: septic shock” value (in vivo) was 3.2% and the “Grade >3 TEAE: small intestinal obstruction” value (in vivo) was 3.2%. The “Grade >3 TEAE: urinary tract infection” value (in vivo) was 4.8%, the “Grade >3 TEAE: vomiting” value (in vivo) was 4.8% and the “M2698-related TEAE abnormal dreams” value (in vivo) was 9.7%. The “M2698-related TEAE diarrhea” value (in vivo) was 11.3%, the “M2698-related TEAE fatigue” value (in vivo) was 6.5% and the “M2698-related TEAE nausea” value (in vivo) was 19.4%. For the same compound, the “M2698-related TEAE tremor” value (in vivo) was 6.5%, the “M2698-related TEAE: Abnormal dreams” value (in vivo) was 6 (9.7) number of patients (percent) and the “M2698-related TEAE: Diarrhea” value (in vivo) was 7 (11.3) number of patients (percent). For the same compound, the “M2698-related TEAE: Fatigue” value (in vivo) was 4 (6.5) number of patients (percent), the “M2698-related TEAE: Nausea” value (in vivo) was 12 (19.4) number of patients (percent) and the “M2698-related TEAE: Tremor” value (in vivo) was 4 (6.5) number of patients (percent). The “M2698-related TEAEs: patients with ≥1 event” value (in vivo) was 34 (54.8) number of patients (percent), the “Patients with M2698-related TEAEs” value (in vivo) was 54.8% and the “Patients with M2698-related TEAEs grade ≥ 3” value (in vivo) was 12.9%. For the same compound, the “Serious TEAE related to M2698” value (in vivo) was 5 (8.1) number of patients (percent), the “Serious TEAEs” value (in vivo) was 26 (41.9) number of patients (percent) and the “Serious TEAEs attributed to M2698” value (in vivo) was 8.1 % of patients. The “TEAE leading to permanent discontinuation of any trial treatment” value (in vivo) was 6 (9.7%) number of patients (percent), the “TEAE leading to temporary discontinuation of M2698” value (in vivo) was 29 (46.8%) number of patients (percent) and the “TEAE related to M2698” value (in vivo) was 34 (54.8%) number of patients (percent). For the same compound, the “TEAE related to M2698, grade ≥ 3” value (in vivo) was 8 (12.9%) number of patients (percent), the “TEAE: ALT increased” value (in vivo) was 4 (6.5) n (%) and the “TEAE: AST increased” value (in vivo) was 2 (3.2) n (%). The “TEAE: Abdominal pain” value (in vivo) was 5 (8.1) n (%), the “TEAE: Abnormal dreams” value (in vivo) was 6 (9.7) n (%) and the “TEAE: Anemia” value (in vivo) was 13 (21.0) n (%). For the same compound, the “TEAE: Anxiety” value (in vivo) was 6 (9.7) n (%), the “TEAE: Arthralgia” value (in vivo) was 1 (1.6) n (%) and the “TEAE: Asthenia” value (in vivo) was 2 (3.2) n (%). For the same compound, the “TEAE: Back pain” value (in vivo) was 2 (3.2) n (%), the “TEAE: Blood AP increased” value (in vivo) was 4 (6.5) n (%) and the “TEAE: Blood bilirubin increased” value (in vivo) was 2 (3.2) n (%). For the same compound, the “TEAE: Blood creatinine increased” value (in vivo) was 7 (11.3) n (%), the “TEAE: Chills” value (in vivo) was 2 (3.2) n (%) and the “TEAE: Constipation” value (in vivo) was 14 (22.6) n (%). For the same compound, the “TEAE: Cough” value (in vivo) was 11 (17.7) n (%), the “TEAE: Decreased appetite” value (in vivo) was 9 (14.5) n (%) and the “TEAE: Dehydration” value (in vivo) was 7 (11.3) n (%). The “TEAE: Depression” value (in vivo) was 3 (4.8) n (%), the “TEAE: Diarrhea” value (in vivo) was 17 (27.4) n (%) and the “TEAE: Disease progression” value (in vivo) was 2 (3.2) n (%). The “TEAE: Dizziness” value (in vivo) was 9 (14.5) n (%), the “TEAE: Dry mouth” value (in vivo) was 3 (4.8) n (%) and the “TEAE: Dry skin” value (in vivo) was 0 (0) n (%). The “TEAE: Dyspnea” value (in vivo) was 4 (6.5) n (%), the “TEAE: Edema peripheral” value (in vivo) was 1 (1.6) n (%) and the “TEAE: Fatigue” value (in vivo) was 21 (33.9) n (%). For the same compound, the “TEAE: GGT increased” value (in vivo) was 7 (11.3) n (%), the “TEAE: Gait disturbance” value (in vivo) was 2 (3.2) n (%) and the “TEAE: Headache” value (in vivo) was 3 (4.8) n (%). The “TEAE: Hyperglycemia” value (in vivo) was 1 (1.6) n (%), the “TEAE: Hypertension” value (in vivo) was 4 (6.5) n (%) and the “TEAE: Hypoalbuminemia” value (in vivo) was 5 (8.1) n (%). For the same compound, the “TEAE: Hypocalcemia” value (in vivo) was 4 (6.5) n (%), the “TEAE: Hypokalemia” value (in vivo) was 4 (6.5) n (%) and the “TEAE: Hypomagnesemia” value (in vivo) was 2 (3.2) n (%). The “TEAE: Hyponatremia” value (in vivo) was 5 (8.1) n (%), the “TEAE: Insomnia” value (in vivo) was 2 (3.2) n (%) and the “TEAE: Muscle spasms” value (in vivo) was 0 (0) n (%). For the same compound, the “TEAE: Muscular weakness” value (in vivo) was 1 (1.6) n (%), the “TEAE: Nasopharyngitis” value (in vivo) was 1 (1.6) n (%) and the “TEAE: Nausea” value (in vivo) was 23 (37.1) n (%). For the same compound, the “TEAE: Neutropenia” value (in vivo) was 1 (1.6) n (%), the “TEAE: Pain in extremity” value (in vivo) was 3 (4.8) n (%) and the “TEAE: Pyrexia” value (in vivo) was 11 (17.7) n (%). For the same compound, the “TEAE: Rash” value (in vivo) was 1 (1.6) n (%), the “TEAE: Tremor” value (in vivo) was 5 (8.1) n (%) and the “TEAE: Urinary tract infection” value (in vivo) was 5 (8.1) n (%). For the same compound, the “TEAE: Vision blurred” value (in vivo) was 3 (4.8) n (%), the “TEAE: Vomiting” value (in vivo) was 12 (19.4) n (%) and the “TEAE: Weight decrease” value (in vivo) was 4 (6.5) n (%). The TEAEs (in vivo) was 61 (98.4%) number of patients (percent), the “TEAEs, grade ≥ 3” value (in vivo) was 36 (58.1%) number of patients (percent) and the “TEAE leading to death” value (no deaths considered related to M2698, trastuzumab or tamoxifen) was 6 (9.7) number of patients (percent). For the same compound, the “Recommended phase 2 dose (RP2D) of M2698” value (once daily (QD)) was 240 mg, the “Psychiatric event attributed to M2698” value (one patient, 320 mg, cycle 2) was “grade 3 psychosis” and the “Grade 2–3 gastrointestinal adverse events requiring dose reduction” value (patients with prolonged exposure to M2698 ≥ 320 mg) was 19.4%.
